# Measurements reported in patent US20190308987A1, “DUAL MODULATORS OF BOTH MU AND KAPPA OPIOID RECEPTORS” (priority 2016, published 2019).
# Several values for one entry are separate records, joined by “and”; a condition that tells them apart may be missing. Equal values may be shown once. Entries after “also recorded” stand apart in the source; their conditions may differ.
# Key:
# [1] = system: GI transit; settings: humans; cited from earlier work
# [2] = system: guinea pig ileum Longitudinal Muscle Myenteric Plexus (LMMP); experiment: Electrical field stimulated contractions in LMMP strips
# Method: Male albino guinea pigs (350-450 g) were euthanized by asphyxiation with CO2. A segment of ileum was removed and placed in a dissection bath filled with pre-oxygenated Krebs' solution (118 mM NaCl, 4.6 mM KCl, 1.3 mM NaH2PO4, 1.2 mM MgSO4, 25 mM NaHCO3, 11 mM glucose, and 2.5 mM CaCl2). Longitudinal Muscle Myenteric Plexus (LMMP) strips were prepared as previously described.^26 Electrical field stimulation (EFS) (50 V, 7.5 Hz, unless stated otherwise) was applied through concentric electrodes over longitudinal muscle or L-type stimulating electrodes over circular muscle strips to produce neurogenic contractions/relaxations. Drugs were added in single or cumulative doses depending on the assay to determine their inhibitory effects on the neurogenic responses.
# [3] = molecular target: MOR (Mus musculus, UniProt P42866); settings: relative to DAMGO, NAP data from ref 9b; cited from earlier work
# [4] = system: mouse distal colon circular muscle; experiment: Colon circular muscle isometric tension recordings, distal colon
# Method: (§1) Mice were euthanized by cervical dislocation. The colon was dissected, flushed of its contents, and trimmed of mesentery. […] The tissues, 0.5 cm in length, were suspended vertically along the axis of the circular muscle with a metal triangle tied to a hook under 1 g of passive tension in 15 mL siliconized organ baths.
# (§2) Data are presented as the mean±S.E.M, values of P≤0.05 were considered significant.
# [5] = system: mouse proximal colon circular muscle; experiment: Colon circular muscle isometric tension recordings, proximal colon
# Method: as §1, §2
# [6] = molecular target: T1, KOR (Homo sapiens, UniProt P41145); settings: NAP data from ref 9b, cited from earlier work
# T1 construct: expressed in transfected cells; host or cells: CHO cells (membranes)
# [7] = system: colonic motility; settings: rodent models; cited from earlier work
# [8] = system: colonic motility; experiment: Colonic bead expulsion assay; type: in vivo, mice; settings: morphine 3 mg/kg; naive mice 17 min
# Method: Mice were habituated and fasted as described above for the gastrointestinal transit analysis. […] At 20 min post-injection, animals were anesthetized with isoflurane (1-2 min) to insert a single 2-mm glass bead into the distal colon at a distance of 3 cm from the anus. Bead insertion was accomplished using a glass rod with a fire-polished end to avoid tissue damage and marked at 3 cm.^25 After bead insertion, mice were placed in individual cages and the time to bead expulsion was monitored. Animals were monitored for a maximum of 2 h unless bead expulsion occurred sooner.
# [9] = system: morphine antinociception; experiment: Warm water tail immersion (tail flick) test; type: in vivo, Swiss Webster mice; settings: morphine alone, warm water tail flick
# Method: Male Swiss Webster mice (Harlan Laboratories, Indianapolis, Ind.) weighing 25-30 g were housed 5 to a cage in animal care quarters and maintained at […] on a 12 h light-dark cycle. Food and water were available ad libitum. The mice were brought to a test room (22±2° C., 12 h light-dark cycle), marked for identification and allowed 18 h to recover from transport and handling. Protocols and procedures were approved by the Institutional Animal Care and Use Committee (IACUC) at Virginia Commonwealth University Medical Center and comply with the recommendations of the IASP (International Association for the Study of Pain).
# The warm water tail-immersion test was performed according to previously described methods using a water bath with the temperature maintained at 56±0.1° C.^20 Briefly, before giving the mice injections, a baseline (control) latency was determined. Only mice with a control reaction time of 2 to 4 s were used. The average baseline latency for these experiments was 3.0±0.1 s. The test latency after drug treatment was assessed at the appropriate time, and a 10 s maximal cutoff time was imposed to prevent tissue damage. Antinociception was quantified according to established procedures as the percentage of maximum possible effect (% MPE), which was calculated as follows: % MPE=[(test latency−control latency)/(10−control latency)]×100.^21 Percentage MPE was calculated for each mouse, using at least six mice per group.
# Intracerebroventricular (ICV) injections were performed as described previously.^22 Mice were anesthetized with 2.5% isoflurane and a horizontal incision was made in the scalp. A needle was inserted to a depth of 3 mm into the lateral ventrical (2 mm rostral and 2 mm lateral at a 45° angle from the bregma). At intervals, 5 μL injections of drug or vehicle were made using this guide insertion to the same depth using a needle with a guard in nonanesthetized animals.^22, 23 Animals underwent the anesthetized surgery in the morning of the experiment and were then injected with drug at intervals indicated in the text without additional anesthesia. Immediately after testing, the animals were euthanized to minimize any type of distress, according to IACUC guidelines.
# [10] = system: intestinal transit; experiment: Charcoal meal test for gastrointestinal transit; type: in vivo, mice; settings: charcoal gavage, compound alone
# Method: Forty-eight hours before testing, mice were placed in cages with raised mesh wire to suspend them above their bedding and prevent ingestion of feces or bedding. The animals were habituated for 24 h in the presence of food and water and then fasted for 24 h with free access to water as previously reported.^24 This time frame was chosen to deplete the intestine and colon of any feces. To maintain caloric intake and to avoid hypoglycemia, mice had access to a sugar water solution consisting of a final concentration of 5% dextrose for the first 8 h of the fasting period. […] At 30 min after the administration of the charcoal meal, the mice were euthanized by cervical dislocation, and the small intestine from the jejunum to the cecum was dissected and placed in cold saline to stop peristalsis. The distance traveled by the leading edge of the charcoal meal was measured relative to the total length of the small intestine, and the percentage of intestinal transit for each animal was calculated as percentage transit (charcoal distance)/(small intestinal length)×100. This is referred to as intestinal transit in the text.
# T1 sequence (P41145 whole entry): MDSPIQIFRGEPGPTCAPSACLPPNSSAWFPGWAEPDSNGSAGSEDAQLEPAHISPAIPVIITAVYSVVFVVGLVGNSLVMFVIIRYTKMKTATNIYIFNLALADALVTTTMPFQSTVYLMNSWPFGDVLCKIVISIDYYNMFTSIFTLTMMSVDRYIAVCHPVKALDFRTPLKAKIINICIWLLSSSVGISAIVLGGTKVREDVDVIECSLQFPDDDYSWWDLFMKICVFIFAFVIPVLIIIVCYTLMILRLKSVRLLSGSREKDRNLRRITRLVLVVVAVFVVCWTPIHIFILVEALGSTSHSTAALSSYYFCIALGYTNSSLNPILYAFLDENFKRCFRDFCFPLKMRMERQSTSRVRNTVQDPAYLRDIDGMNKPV
# MOR, sequence (P42866 whole entry): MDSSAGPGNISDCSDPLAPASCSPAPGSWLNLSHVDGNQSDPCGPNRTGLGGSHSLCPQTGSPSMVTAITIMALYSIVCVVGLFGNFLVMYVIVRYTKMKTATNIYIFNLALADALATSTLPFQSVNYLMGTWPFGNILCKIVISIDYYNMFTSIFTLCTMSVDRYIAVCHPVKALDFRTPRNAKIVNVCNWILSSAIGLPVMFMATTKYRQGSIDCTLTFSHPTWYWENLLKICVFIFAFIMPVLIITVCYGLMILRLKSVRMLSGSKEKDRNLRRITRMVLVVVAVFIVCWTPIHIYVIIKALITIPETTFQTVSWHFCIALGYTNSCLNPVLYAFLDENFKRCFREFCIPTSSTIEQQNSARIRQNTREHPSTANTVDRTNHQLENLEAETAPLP
smiles,measurement,setting,value
CN(C(=O)C(c1ccccc1)c1ccccc1)[C@H](CN1CC[C@H](O)C1)c1ccccc1 [Asimadoline],effect on GI transit,[1],did not alter GI transit
"C[C@@H](NC(=O)[C@@H](N)Cc1ccc(O)cc1)C(=O)NCC(=O)N(C)[C@@H](Cc1ccccc1)C(=O)NCCO [DAMGO, reference compound]",pIC50 for inhibition of EFS contractions,[2]; guinea pig ileum LMMP,7.67±0.03
same,effect of nor-BNI on agonist inhibition of EFS contractions,"[2]; nor-BNI 0.1 μM, 15 min pretreatment",did not significantly effect DAMGO inhibition of EFS contractions
"O=C(NC1CCC2(O)C3Cc4ccc(O)c5c4C2(CCN3CC2CC2)C1O5)c1ccncc1 (stereo not drawn) [NAP, 17-Cyclopropylmethyl-3, 14beta-dihydroxy-4,5alpha-epoxy-6beta-(4′-pyridylcarboxamido)morphinan, reference compound]",% max of agonist,[3],22.72±0.84% and 22.7 ± 0.8%
same,inhibition of morphine-induced contractions,"[4]; 1 nM antagonist, distal colon",neither NAP nor BNAP showed significant inhibition of morphine-induced contractions
same,antagonism of morphine effects,"[4]; 10 nM antagonist, distal colon",neither NAP nor BNAP showed significant antagonism of morphine effects
same,morphine pD2 in presence of antagonist,"[4]; 100 nM antagonist, distal colon (naive 6.0)",5.3
same,contractions induced by compound alone,"[4]; up to 30 μM, distal colon preparation",Neither BNAP nor NAP alone at concentrations up to 30 μM induced contractions
same,inhibition of morphine-induced contractions,"[5]; 1 nM antagonist, proximal colon",neither NAP nor BNAP showed significant inhibition of morphine-induced contractions
same,morphine pD2 in presence of antagonist,"[5]; 10 nM antagonist, proximal colon (naive 6.8)",5.9
same,further reduction of morphine pD2,"[5]; 100 nM versus 10 nM antagonist, proximal colon",no further reduction of the morphine pD2
same,contractions induced by compound alone,"[5]; up to 30 μM, proximal colon preparation",Neither BNAP nor NAP alone at concentrations up to 30 μM induced contractions
same,EC50,[6]; 35S-GTP[γS],28.8 ± 14.4 nM
same,% max of agonist,"[6]; relative to U50,488H",45.5±4.4%
COC(=O)[C@@H]1C[C@H](OC(C)=O)C(=O)[C@H]2[C@@]1(C)CC[C@H]1C(=O)O[C@H](c3ccoc3)C[C@]21C [Salvinorin A],effect on colonic / GI motility,[7],reduced colonic motility; also recorded: can reduce GI motility
"CN1CC[C@]23c4c5ccc(O)c4O[C@H]2[C@@H](O)C=C[C@H]3[C@H]1C5 [morphine, reference compound]",bead expulsion time,[8],75 min
same,antinociception,[9],dose dependently induced antinociception
same,reduction of intestinal motility,[10],3 fold
